Results on three molecules are retold here after US9295665B2, “Inhibition of neovascularization by simultaneous inhibition of prostanoid IP and EP4 receptors” (ALLERGAN, INC., priority 2013, dated 2016).

The target of experiment [1] is T1, IP receptor (Homo sapiens, UniProt P43119). Description: VEGF secretion in TNFα-stimulated human macrophages (IP agonist / IP antagonist).
Method: (§1) Histogram ordering (both panels, left to right): No stimulus; vehicle; 0.1 nM; 1 nM; 10 nM; 100 nM; 1000 nM of agonist.
Experiment [2] concerns the target T1, IP receptor. Description: Cellular Dielectric Spectroscopy (impedance) in human retinal microvascular endothelial cells, IP agonist. Format: cell-based. Further details: TNFα-stimulated human macrophages, obtained from individual donors; endogenous in cells; host or cells: TNFα-stimulated human macrophages from individual donors. The note with it: HRMECs, normalized to PGE2 at 10 μM; read-out: EC50, change in impedance. Here is the method:
Cellular dielectric spectroscopy, as known in the art, was employed to determine EC50 levels for EP4 agonist and IP agonist in human retinal microvascular endothelial cells (HRMECs). […].
Cellular Dielectric Spectroscopy (CDS) is a label-free technology to measure the changes in impedance of cells in response to receptor stimulation. HRMEC cells were seeded at on 96 well plates (CDS plates) coated with fibronectin and incubated for 24 hrs at 37° C., 5% CO2. On the day of the experiment, the culture medium was replaced by HBSS, BSA 1% and incubated for 1 h at 28° C. Compounds were then added and the signal was monitored for 10 minutes at 28° C. Compounds were tested at the following final concentrations in assay buffer containing 0.1% DMSO: 1E-12, 1E-11, 1E-10, 1E-9, 1E-8, 1E-7, 1E-6, and 1E-5M. The background signal (buffer only) was systematically subtracted to the signal in order to determine the specific signal. The effect of EP4 agonist Formula V and IP agonist Cicaprost were normalized to the signal of the positive control PGE2 at 10 μM. All data were generated in duplicate.

Another experiment concerns the target EP4 receptor (Homo sapiens, UniProt P35408). Description: VEGF secretion in TNFα-stimulated human macrophages (EP4 agonist / EP4 antagonist). The note with it: 100 nM PGE2, TNFα-stimulated human macrophages from individual donors, 1, 3, 10 μM antagonist, n=3.

T1 sequence (P43119 whole entry): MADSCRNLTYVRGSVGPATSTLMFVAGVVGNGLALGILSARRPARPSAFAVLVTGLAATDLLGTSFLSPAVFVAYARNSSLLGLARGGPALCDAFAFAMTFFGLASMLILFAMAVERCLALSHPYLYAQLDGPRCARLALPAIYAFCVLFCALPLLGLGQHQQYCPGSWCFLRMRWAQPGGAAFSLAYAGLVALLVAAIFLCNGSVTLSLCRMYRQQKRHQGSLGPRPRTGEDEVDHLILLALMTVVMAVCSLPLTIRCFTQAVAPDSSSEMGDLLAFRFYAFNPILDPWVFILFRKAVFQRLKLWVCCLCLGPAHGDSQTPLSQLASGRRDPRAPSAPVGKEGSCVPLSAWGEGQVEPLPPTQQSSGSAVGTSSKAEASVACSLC
EP4 receptor, sequence (P35408 whole entry): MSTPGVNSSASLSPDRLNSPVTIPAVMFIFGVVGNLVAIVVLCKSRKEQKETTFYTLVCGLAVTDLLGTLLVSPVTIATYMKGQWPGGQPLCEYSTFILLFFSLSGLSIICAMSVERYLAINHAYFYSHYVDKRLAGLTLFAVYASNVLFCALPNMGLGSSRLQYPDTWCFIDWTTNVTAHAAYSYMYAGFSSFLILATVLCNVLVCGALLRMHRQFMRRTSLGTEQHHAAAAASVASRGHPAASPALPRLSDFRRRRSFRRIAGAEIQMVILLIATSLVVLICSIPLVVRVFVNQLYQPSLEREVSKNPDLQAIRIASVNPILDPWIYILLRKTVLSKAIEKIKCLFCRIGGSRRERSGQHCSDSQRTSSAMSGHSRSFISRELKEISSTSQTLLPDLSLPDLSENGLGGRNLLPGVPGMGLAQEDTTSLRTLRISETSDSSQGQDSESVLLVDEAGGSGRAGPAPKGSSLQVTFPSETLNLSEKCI
Method for EP4 receptor: as §1

On to `CC(C)Oc1ccc(Cc2ccc(NC3=NCCN3)cc2)cc1` [Formula I], for which, on IP receptor [1] (100 nM Cicaprost, TNFα-stimulated human macrophages from individual donors, 1, 3, 10 μM antagonist, n=2), the “Inhibition of Cicaprost-induced VEGF secretion” value is “dose dependently inhibiting”.

One may read the EC50 as the concentration at which the effect is half-maximal. As to `CCC#CC[C@H](C)[C@H](O)C#C[C@@H]1[C@H]2C/C(=C/COCC(=O)O)C[C@H]2C[C@H]1O` [Cicaprost, cicaprost], the EC50 on IP receptor [2] turned out to be 18 nM; on IP receptor [1] it was 2.3 nM.

Consider `CCOc1c2c(c(OCC)c3ccccc13)C(=O)N(c1ccc(CC(=O)NS(=O)(=O)c3ccccc3)cc1)C2` [Formula IV], for which the “Inhibition of PGE2-induced VEGF secretion” value on EP4 receptor was “dose dependently inhibiting”.
